Substitutions are numbered along the chain they refer to.
T1: GFP-Pif1 (Saccharomyces cerevisiae, UniProt P07271, T301A)
T1 construct: N-terminal superfolder GFP fusion of nuclear isoform residues 40-859, pRSF-Duet-1, E. coli Rosetta2(DE3), Ni-NTA purified
T1 sequence (P07271 40-859 T301A): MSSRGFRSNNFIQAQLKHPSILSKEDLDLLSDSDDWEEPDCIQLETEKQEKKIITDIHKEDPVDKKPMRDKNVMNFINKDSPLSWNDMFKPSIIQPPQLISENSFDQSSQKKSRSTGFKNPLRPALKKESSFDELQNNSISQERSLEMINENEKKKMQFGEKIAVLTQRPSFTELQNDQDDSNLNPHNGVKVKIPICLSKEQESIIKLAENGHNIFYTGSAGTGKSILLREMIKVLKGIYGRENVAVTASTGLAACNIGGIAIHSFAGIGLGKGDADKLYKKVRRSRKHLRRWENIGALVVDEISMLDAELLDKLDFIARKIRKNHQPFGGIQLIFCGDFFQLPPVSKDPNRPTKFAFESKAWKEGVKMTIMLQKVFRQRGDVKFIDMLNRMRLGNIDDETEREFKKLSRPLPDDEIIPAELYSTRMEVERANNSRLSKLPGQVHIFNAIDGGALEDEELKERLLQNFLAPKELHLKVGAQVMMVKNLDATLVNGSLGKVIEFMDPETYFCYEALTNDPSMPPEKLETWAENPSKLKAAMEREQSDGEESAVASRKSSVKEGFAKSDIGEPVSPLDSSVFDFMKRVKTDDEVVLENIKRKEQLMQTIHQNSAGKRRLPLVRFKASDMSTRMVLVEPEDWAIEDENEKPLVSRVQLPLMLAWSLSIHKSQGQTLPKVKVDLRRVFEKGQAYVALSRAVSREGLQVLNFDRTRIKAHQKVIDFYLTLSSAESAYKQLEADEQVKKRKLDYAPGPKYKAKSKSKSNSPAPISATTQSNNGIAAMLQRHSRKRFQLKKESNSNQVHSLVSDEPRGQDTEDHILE

T2: GFP-Pif1 (Saccharomyces cerevisiae, UniProt P07271, L310A)
T2 construct: N-terminal superfolder GFP fusion of nuclear isoform residues 40-859, pRSF-Duet-1, E. coli Rosetta2(DE3), Ni-NTA purified
T2 sequence (P07271 40-859 L310A): T1 sequence (P07271 40-859 T301A) with A262T, L271A

T3: GFP-Pif1 G291P (Saccharomyces cerevisiae, UniProt P07271 40-859, G291P)
T3 sequence: T1 sequence (P07271 40-859 T301A) with G252P, A262T

T4: GFP-Pif1 T301A (Saccharomyces cerevisiae, UniProt P07271 40-859, T301A)
T4 sequence: T1 sequence (P07271 40-859 T301A)


Legend:
GFP-Pif1 [1] = target: T1, GFP-Pif1; test: ATP hydrolysis, [γ-32P]-ATP TLC, Michaelis-Menten fit; type: biochemical; conditions: M13 ssDNA 1.5 μM nt, 10 nM Pif1, 5 mM MgCl2, 60 mM KCl, pH 7.5, 30 °C, no RPA; labelled compound as tracer
GFP-Pif1 [2] = target: T2, GFP-Pif1; test: as above; type: biochemical; conditions: M13 ssDNA 1.5 μM nt, 10 nM Pif1, 5 mM MgCl2, 60 mM KCl, pH 7.5, 30 °C, no RPA; labelled compound as tracer
Description: ATP hydrolysis, [γ-32P]-ATP TLC, Michaelis-Menten fit on GFP-Pif1 | each of the mutant proteins was tested for ATPase activity

GFP-Pif1 G291P = target: T3, GFP-Pif1 G291P; test: EMSA; no ATP, 5 mM Mg2+; 35 mM Tris-HCl pH 7.5, 1 mM DTT, 5 mM MgCl2, 60 mM KCl, 0.1 mg/ml BSA, no ATP, 30 min at 30 C; 5 nM ssDNA; conditions: protein: recombinant; tags: N-terminal superfolder GFP; Ni-NTA purified; label: 5' Alexa647
GFP-Pif1 T301A = target: T4, GFP-Pif1 T301A; test: EMSA; no ATP, 5 mM Mg2+; up to 50 nM; 35 mM Tris-HCl pH 7.5, 1 mM DTT, 5 mM MgCl2, 60 mM KCl, 0.1 mg/ml BSA, no ATP, 30 min at 30 C; 5 nM ssDNA; conditions: protein: recombinant; tags: N-terminal superfolder GFP; Ni-NTA purified; label: 5' Alexa647

| Km (GFP-Pif1 [1]) [µM] | Km (GFP-Pif1 [2]) [µM] | Molecule | Kd (GFP-Pif1 G291P) [nM] | binding result (GFP-Pif1 T301A) |
| --- | --- | --- | --- | --- |
| 1000 ± 830 | 650 ± 630 | Nc1ncnc2c1ncn2[C@@H]1O[C@H](COP(=O)(O)OP(=O)(O)OP(=O)(O)O)[C@@H](O)[C@H]1O [ATP] |  |  |
|  |  | GCTAGCAGTAGCCAGCATCGAACGTACGATCGGTAACGTA (ssDNA) [40-nt ssDNA] | 61.4 ± 15.8 | no binding |

Reference: PMC10279920, “Single-molecule visualization of Pif1 helicase translocation on single-stranded DNA” (The Journal of Biological Chemistry, 2023)
